Source: patent US4550186A, “Binuclear copper (II) carboxylates formed from amine-carboxyboranes” (Duke University, priority 1983, dated 1985)

Target: T1, ATP Dependent Citrate Lyase (Mus musculus, UniProt Q91V92)
T1 construct: 10% homogenates of CF1 male mouse liver; from tissue; host or cells: CF1 male mouse liver, 10% homogenate
T1 sequence (Q91V92 1-1091): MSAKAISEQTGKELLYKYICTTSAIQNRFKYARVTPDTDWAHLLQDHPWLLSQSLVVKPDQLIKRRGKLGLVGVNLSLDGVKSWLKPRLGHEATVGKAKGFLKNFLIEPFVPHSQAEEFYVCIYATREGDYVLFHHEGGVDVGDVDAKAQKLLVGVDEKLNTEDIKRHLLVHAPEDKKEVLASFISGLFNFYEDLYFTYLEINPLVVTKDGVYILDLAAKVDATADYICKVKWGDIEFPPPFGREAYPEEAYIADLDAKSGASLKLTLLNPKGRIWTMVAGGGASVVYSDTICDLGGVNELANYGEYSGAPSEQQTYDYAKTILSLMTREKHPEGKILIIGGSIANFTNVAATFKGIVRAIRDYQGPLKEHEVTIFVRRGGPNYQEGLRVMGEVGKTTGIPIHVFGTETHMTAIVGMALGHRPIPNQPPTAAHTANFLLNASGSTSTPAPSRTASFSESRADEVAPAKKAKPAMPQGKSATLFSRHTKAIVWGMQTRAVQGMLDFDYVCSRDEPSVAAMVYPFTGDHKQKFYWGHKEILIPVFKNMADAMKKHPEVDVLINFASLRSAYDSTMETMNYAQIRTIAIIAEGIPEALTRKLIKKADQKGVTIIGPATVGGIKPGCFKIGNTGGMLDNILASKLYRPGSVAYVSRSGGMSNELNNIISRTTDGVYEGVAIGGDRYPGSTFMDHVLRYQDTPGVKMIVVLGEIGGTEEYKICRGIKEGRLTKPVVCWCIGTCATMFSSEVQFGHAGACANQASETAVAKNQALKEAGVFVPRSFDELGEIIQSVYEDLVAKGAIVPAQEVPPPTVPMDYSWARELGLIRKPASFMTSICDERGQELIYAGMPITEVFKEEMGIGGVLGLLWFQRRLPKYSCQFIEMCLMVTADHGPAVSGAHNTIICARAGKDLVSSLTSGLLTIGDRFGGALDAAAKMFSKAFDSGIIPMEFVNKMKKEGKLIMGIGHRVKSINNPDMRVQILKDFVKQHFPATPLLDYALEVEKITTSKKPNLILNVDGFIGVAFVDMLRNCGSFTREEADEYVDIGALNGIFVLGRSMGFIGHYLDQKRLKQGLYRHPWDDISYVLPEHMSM
Test: In vivo liver enzyme study: ATP dependent citrate lyase
Settings: CF1 liver after 16 days i.p.
Description: In vitro enzymatic studies were determined using 10% homogenates of CF1 male mouse liver with 50-200 μM of test drugs. In vivo enzymatic studies were determined using 10% homogenates of liver from CF1 male mice obtained after administering the agents for 16 days at a dose ranging from 2.5-20 mg/kg/day intraperitoneally. The liver homogenates for both in vitro and in vivo studies were prepared in 0.25M sucrose and 0.001M (ethylenedinitrilo)tetraacetic acid. Acetyl coenzyme A synthetase and adenosine triphosphate dependent citrate lyase activities were determined spectrophotometrically at 540 nm as the hydroxylamate of acetyl coenzyme A formed after 30 min at 37° C. Mitochondrial citrate exchange was determined by the procedure of Robinson et al [Eur. J. Biochem., 216, 63 (1970)] using ^14 C-sodium bicarbonate (41 mCi/mmol) incorporated into mitochondrial ^14 C-citrate after isolating rat mitochondria (9000 g×10 min) from the homogenates. The exchanges of the ^14 C-citrate were determined after incubating the mitochondrial fraction which was loaded with labeled citrate and test drugs for 10 min. Then the radioactivity was measured in the mitochondrial and supernantant fractions in scintillation fluid and expressed as a percentage. Cholesterol side chain oxidation was determined by the method of Kritchevsky and Tepper [Artherosclerosis, 18, 93 (1973)] using (26-^14 C) cholesterol (50 mCi/mmol) and mitochondria isolated from rat liver homogenates. […] Fatty acid synthetase activity was determined by the method of Brady et al [J. Biol. Chem., 235, 3093 (1960)] using [2-^14 C] malonyl-coenzyme A (37.5 mCi/mmol) which was incorporated into newly synthesized fatty acids that were extracted with ether and counted. Acyl transferase activity was determined with glycerol-3phosphate [L-2-^3 H(N)] […] HCl and counted. Phosphatidate phosphohydrolase activity was measured as the inorganic phosphate released after 30 min from phosphatidic acid by the method of Mavis et al [J. Lipid Res., 19, 467 (1978)]. […]

{Cu[(CH3)3 N.BH2 CO2 ]2.(CH3)3 N.BH2 COOH} [Compound I]
ATP Dependent Citrate Lyase (2.5 mg/kg): 70 ± 6% of control | ATP Dependent Citrate Lyase (5.0 mg/kg): 79 ± 7% of control | ATP Dependent Citrate Lyase (10 mg/kg): 72 ± 7% of control
